We go through 11 compounds from ChEMBL document CHEMBL2069202, “Antiviral activity and synthesis of quaternized promazine derivatives against HSV-1” (Bioorg Med Chem Lett, 2012).

Data set [1] has as its system Human alphaherpesvirus 1. The data set is described as follows: Antiviral activity against HSV-1 infected in african green monkey Vero cells assessed as inhibition of GFP gene expression after 48 hrs by RT-PCR analysis. Format: functional, organism-based.
Data set [2] concerns Human alphaherpesvirus 1. The data set is described as follows: Antiviral activity against HSV-1 infected in african green monkey Vero cells assessed as inhibition of viral replication after 48 hrs by GFP reduction assay. It is filed as functional, organism-based.
Data set [3] deals with Human alphaherpesvirus 1. The data set is described as follows: Antiviral activity against HSV-1 infected in african green monkey Vero cells assessed as inhibition of viral replication at 50 uM after 48 hrs by GFP reduction assay. Format: functional, organism-based.
Data set [4] concerns Human alphaherpesvirus 1. The data set is described as follows: Antiviral activity against HSV-1 infected in african green monkey Vero cells assessed as inhibition of viral replication at 200 uM after 48 hrs by GFP reduction assay. Format: functional, organism-based.
Data set [5] relates to Human alphaherpesvirus 1. The data set is described as follows: Antiviral activity against HSV-1 infected in african green monkey Vero cells assessed as inhibition of viral replication at 48 uM after 48 hrs by plaque reduction assay. Format: functional, organism-based. For orientation: Plaques are areas of infected cells; plaque reduction assays count them against a control.

The subject of data set [6] is Human alphaherpesvirus 1. The data set is described as follows: Antiviral activity against HSV-1 infected in african green monkey Vero cells assessed as inhibition of viral replication at 50 uM treated 2 hrs after post infection by GFP reduction assay. Format: functional, organism-based.
Data set [7] has as its system Human alphaherpesvirus 1. The data set is described as follows: Antiviral activity against HSV-1 infected in african green monkey Vero cells assessed as inhibition of viral replication at 50 uM treated for 24 hrs measured 24 hrs after drug washout by GFP reduction assay. It is filed as functional, organism-based.
The test system of data set [8] is Human alphaherpesvirus 1. The data set is described as follows: Antiviral activity against HSV-1 infected in african green monkey Vero cells assessed as inhibition of viral replication at 48 uM after 48 hrs by GFP reduction assay. Format: functional, organism-based.
Data set [9] relates to Human alphaherpesvirus 1. The data set is described as follows: Antiviral activity against HSV-1 infected in african green monkey Vero cells assessed as inhibition of viral ICP4 gene expression after 48 hrs by RT-PCR analysis. It is filed as functional, organism-based.
Another data set has as its system Vero. The data set is described as follows: Cytotoxicity against african green monkey Vero cells up to 200 uM. It is filed as cell-based. Particulars: chlorocebus sabaeus.
Data set [10] deals with Human alphaherpesvirus 1. The data set is described as follows: Antiviral activity against HSV-1 infected in african green monkey Vero cells assessed as inhibition of viral replication at 50 uM after 48 hrs by GFP reduction assay relative to acyclovir. Format: functional, organism-based.

Structures are written as SMILES. Activity calls are given as the source filed them. The rule behind the calls is not given here.

In the case of `O[C@]12C=C(c3nccc4c3[nH]c3ccccc34)[C@@H]3CCN(CCCC/C=C\CC1)C[C@@]31C[C@@H]3/C=C\CCCCN3[C@H]12`, the inhibition entry in the data set with Human alphaherpesvirus 1 [1] is “inactive”.
For the compound `C#CC[N+](C)(C)CCCN1c2ccccc2Sc2ccc(C(F)(F)F)cc21`, in the data set on Human alphaherpesvirus 1 [2], the inhibition entry is “inactive”.
In the case of `C[N+](C)(CCCN1c2ccccc2Sc2ccc(C(F)(F)F)cc21)Cc1ccccc1Cl`, the inhibition entry with Human alphaherpesvirus 1 [3] is “inactive”. In the data set with Human alphaherpesvirus 1 [4], the inhibition entry was “Active”.
Taken in the same sequence, the figures for `C[N+](C)(CCCN1c2ccccc2Sc2ccc(C(F)(F)F)cc21)Cc1cccc(Cl)c1` were “inactive” and “Active”.
Turning to `Nc1nc2c(ncn2COCCO)c(=O)[nH]1`, the inhibition result in the data set with Human alphaherpesvirus 1 [5], in the data set on Human alphaherpesvirus 1 [3], with Human alphaherpesvirus 1 [6], in the data set on Human alphaherpesvirus 1 [7], with Human alphaherpesvirus 1 [8] and with Human alphaherpesvirus 1 [9] was “Active” throughout. Moreover, the inhibition result in the data set on Human alphaherpesvirus 1 [1] was “Active”.
For the compound `C[N+](C)(CCCN1c2ccccc2Sc2ccc(C(F)(F)F)cc21)Cc1ccc(Cl)cc1.[Cl-]`, the inhibition entry with Human alphaherpesvirus 1 [5], in the data set on Human alphaherpesvirus 1 [8], in the data set with Human alphaherpesvirus 1 [9], in the data set on Human alphaherpesvirus 1 [1] and with Human alphaherpesvirus 1 [10] was “Active” throughout. For the same compound, the inhibition entry in the data set on Human alphaherpesvirus 1 [6] and in the data set with Human alphaherpesvirus 1 [7] was “inactive” each time. Moreover, in the data set with Vero, the Activity entry is on record as “Non-toxic”.
Take `C#CC[N+](C)(C)CCCN1c2ccccc2Sc2ccccc21`: the inhibition entry with Human alphaherpesvirus 1 [2] is “inactive”.
In the case of `CCCC[N+](C)(C)CCCN1c2ccccc2Sc2ccc(C(F)(F)F)cc21`, in the data set with Human alphaherpesvirus 1 [4], the inhibition result was “Active”.
As to `C=CC[N+](C)(C)CCCN1c2ccccc2Sc2ccc(C(F)(F)F)cc21`, the inhibition entry in the data set with Human alphaherpesvirus 1 [2] is “inactive”.
In the case of `C[N+](C)(CC#N)CCCN1c2ccccc2Sc2ccc(C(F)(F)F)cc21`, in the data set with Human alphaherpesvirus 1 [2], the inhibition entry was “inactive”.
Still for that read-out and setting: with `C[N+](C)(CCCN1c2ccccc2Sc2ccc(C(F)(F)F)cc21)Cc1ccccc1` the entry was “inactive”.
